Patent US9738634B2, “Heterocyclic amide compound and herbicide” (SYNGENTA PARTICIPATIONS AG, priority 2013, dated 2017)

How the values were obtained:
Assay type in all cases: in vivo
Details in all cases: treatment dosage 320 g/ha
directly sown rice [1] = experiment: Test Example 4: foliar treatment, effect on crop; b: directly sown rice
Summary of the method: (§1)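 Seeds are spot-sown into sterilized diluvial soil and covered with about 1.5 cm of soil. After 14 days' greenhouse growth at 25 to 30° C, plants are sprayed on stems and leaves with diluted emulsion at the stated g/ha rate, then scored at 3 weeks.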

green foxtail [2] = experiment: Test Example 3: weedkilling efficacy through soil treatment; E: green foxtail
Summary of the method: (§2)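 Crop and weed responses were judged three weeks after a uniform surface spray of the water-diluted emulsion at the given g/ha rate. Seeds sat beneath about 1.5 cm of sterilized diluvial soil, and boxes stood in a greenhouse at 25 to 30° C.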

corn [3] = experiment: Test Example 4: foliar treatment, effect on crop; c: corn
Summary of the method: as §1

common wind-grass [4] = experiment: Test Example 3: weedkilling efficacy through soil treatment; J: common wind-grass
Summary of the method: as §2

wheat [5] = experiment: Test Example 4: foliar treatment, effect on crop; e: wheat
Summary of the method: as §1

wheat [6] = experiment: Test Example 3: soil treatment, effect on crop; e: wheat
Summary of the method: as §2

green foxtail [7] = experiment: Test Example 4: weedkilling efficacy by foliar treatment; E: green foxtail
Summary of the method: as §1

crabgrass [8] = experiment: Test Example 3: weedkilling efficacy through soil treatment; D: crabgrass
Summary of the method: as §2

fig-leafed goosefoot [9] = experiment: Test Example 3: weedkilling efficacy through soil treatment; M: fig-leafed goosefoot
Summary of the method: as §2

chickweed [10] = experiment: Test Example 3: weedkilling efficacy through soil treatment; N: chickweed
Summary of the method: as §2

Italian ryegrass [11] = experiment: Test Example 4: weedkilling efficacy by foliar treatment; I: Italian ryegrass
Summary of the method: as §1

barnyard grass [12] = experiment: Test Example 1: weedkilling efficacy, preemergent weed treatment in the submerged state; A: barnyard grass
Summary of the method: (§3)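 Pre-emergence paddy test: weed seeds sown in submerged alluvial soil (4 cm water), 2.5-leaf rice transplanted, water-diluted emulsion applied to water surface at sowing at stated g/ha. Scored at 3 weeks, greenhouse 25–30 °C.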

barnyard grass [13] = experiment: Test Example 4: weedkilling efficacy by foliar treatment; F: barnyard grass
Summary of the method: as §1

catchweed [14] = experiment: Test Example 4: weedkilling efficacy by foliar treatment; O: catchweed
Summary of the method: as §1

Italian ryegrass [15] = experiment: Test Example 3: weedkilling efficacy through soil treatment; I: Italian ryegrass
Summary of the method: as §2

black-grass [16] = experiment: Test Example 3: weedkilling efficacy through soil treatment; H: black-grass
Summary of the method: as §2

common wind-grass [17] = experiment: Test Example 4: weedkilling efficacy by foliar treatment; J: common wind-grass
Summary of the method: as §1

catchweed [18] = experiment: Test Example 3: weedkilling efficacy through soil treatment; O: catchweed
Summary of the method: as §2

corn [19] = experiment: Test Example 3: soil treatment, effect on crop; c: corn
Summary of the method: as §2

crabgrass [20] = experiment: Test Example 4: weedkilling efficacy by foliar treatment; D: crabgrass
Summary of the method: as §1

beet [21] = experiment: Test Example 4: foliar treatment, effect on crop; f: beet
Summary of the method: as §1

redroot pigweed [22] = experiment: Test Example 4: weedkilling efficacy by foliar treatment; L: redroot pigweed
Summary of the method: as §1

barnyard grass [23] = experiment: Test Example 3: weedkilling efficacy through soil treatment; F: barnyard grass
Summary of the method: as §2

bulrush [24] = experiment: Test Example 1: weedkilling efficacy, preemergent weed treatment in the submerged state; B: bulrush
Summary of the method: as §3

transplanted rice = experiment: Test Example 1: preemergent weed treatment in the submerged state, effect on crop; a: transplanted rice
Summary of the method: as §3

barnyard grass [25] = experiment: Test Example 2: weedkilling efficacy, growth period weed treatment in the submerged state; A: barnyard grass
Summary of the method: (§4)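 Seedlings at 1-2 leaves in 4 cm-deep submerged alluvial soil received emulsion formulations on the water surface, dosed per hectare; effects were judged 3 weeks on.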

black-grass [26] = experiment: Test Example 4: weedkilling efficacy by foliar treatment; H: black-grass
Summary of the method: as §1

directly sown rice [27] = experiment: Test Example 3: soil treatment, effect on crop; b: directly sown rice
Summary of the method: as §2

wild oat [28] = experiment: Test Example 4: weedkilling efficacy by foliar treatment; G: wild oat
Summary of the method: as §1

Indian mallow [29] = experiment: Test Example 3: weedkilling efficacy through soil treatment; K: Indian mallow
Summary of the method: as §2

birds-eye speedwell = experiment: Test Example 3: weedkilling efficacy through soil treatment; p: birds-eye speedwell
Summary of the method: as §2

wild oat [30] = experiment: Test Example 3: weedkilling efficacy through soil treatment; G: wild oat
Summary of the method: as §2

oval-leafed pondweed [31] = experiment: Test Example 1: weedkilling efficacy, preemergent weed treatment in the submerged state; C: oval-leafed pondweed
Summary of the method: as §3

rapeseed [32] = experiment: Test Example 4: foliar treatment, effect on crop; g: rapeseed
Summary of the method: as §1

beet [33] = experiment: Test Example 3: soil treatment, effect on crop; f: beet
Summary of the method: as §2

redroot pigweed [34] = experiment: Test Example 3: weedkilling efficacy through soil treatment; L: redroot pigweed
Summary of the method: as §2

soybean [35] = experiment: Test Example 3: soil treatment, effect on crop; d: soybean
Summary of the method: as §2

rapeseed [36] = experiment: Test Example 3: soil treatment, effect on crop; g: rapeseed
Summary of the method: as §2

bulrush [37] = experiment: Test Example 2: weedkilling efficacy, growth period weed treatment in the submerged state; B: bulrush
Summary of the method: as §4

oval-leafed pondweed [38] = experiment: Test Example 2: weedkilling efficacy, growth period weed treatment in the submerged state; C: oval-leafed pondweed
Summary of the method: as §4

chickweed [39] = experiment: Test Example 4: weedkilling efficacy by foliar treatment; N: chickweed
Summary of the method: as §1

Indian mallow [40] = experiment: Test Example 4: weedkilling efficacy by foliar treatment; K: Indian mallow
Summary of the method: as §1

soybean [41] = experiment: Test Example 4: foliar treatment, effect on crop; d: soybean
Summary of the method: as §1

fig-leafed goosefoot [42] = experiment: Test Example 4: weedkilling efficacy by foliar treatment; M: fig-leafed goosefoot
Summary of the method: as §1

CC1=C(c2cccnc2F)C(=O)N(C(C)(C)C(=O)Nc2cc(Cl)cc(Br)n2)CO1 [B-2-12]
b (directly sown rice) effect on crop grade (directly sown rice [1]): 5 (weed kill ratio 90% or more, (practically complete withering)) | E (green foxtail) weedkilling efficacy grade (green foxtail [2]): 5 (weed kill ratio 90% or more, (practically complete withering)) | c (corn) effect on crop grade (corn [3]): 4 (weed kill ratio 70% or more, less than 90%) | J (common wind-grass) weedkilling efficacy grade (common wind-grass [4]): 5 (weed kill ratio 90% or more, (practically complete withering)) | e (wheat) effect on crop grade (wheat [5]): 0 (weed kill ratio 5% or less (practically no effect)) | e (wheat) effect on crop grade (wheat [6]): 0 (weed kill ratio 5% or less (practically no effect)) | E (green foxtail) weedkilling efficacy grade (green foxtail [7]): 5 (weed kill ratio 90% or more, (practically complete withering)) | D (crabgrass) weedkilling efficacy grade (crabgrass [8]): 5 (weed kill ratio 90% or more, (practically complete withering)) | M (fig-leafed goosefoot) weedkilling efficacy grade (fig-leafed goosefoot [9]): 3 (weed kill ratio 40% or more, less than 70%) | N (chickweed) weedkilling efficacy grade (chickweed [10]): 4 (weed kill ratio 70% or more, less than 90%) | I (Italian ryegrass) weedkilling efficacy grade (Italian ryegrass [11]): 5 (weed kill ratio 90% or more, (practically complete withering)) | A (barnyard grass) weedkilling efficacy grade (barnyard grass [12]): 5 (weed kill ratio 90% or more, (practically complete withering)) | F (barnyard grass) weedkilling efficacy grade (barnyard grass [13]): 5 (weed kill ratio 90% or more, (practically complete withering)) | O (catchweed) weedkilling efficacy grade (catchweed [14]): 4 (weed kill ratio 70% or more, less than 90%) | I (Italian ryegrass) weedkilling efficacy grade (Italian ryegrass [15]): 5 (weed kill ratio 90% or more, (practically complete withering)) | H (black-grass) weedkilling efficacy grade (black-grass [16]): 5 (weed kill ratio 90% or more, (practically complete withering)) | J (common wind-grass) weedkilling efficacy grade (common wind-grass [17]): 5 (weed kill ratio 90% or more, (practically complete withering)) | O (catchweed) weedkilling efficacy grade (catchweed [18]): 2 (weed kill ratio 20% or more, less than 40%) | c (corn) effect on crop grade (corn [19]): 0 (weed kill ratio 5% or less (practically no effect)) | D (crabgrass) weedkilling efficacy grade (crabgrass [20]): 5 (weed kill ratio 90% or more, (practically complete withering)) | f (beet) effect on crop grade (beet [21]): 4 (weed kill ratio 70% or more, less than 90%) | L (redroot pigweed) weedkilling efficacy grade (redroot pigweed [22]): 4 (weed kill ratio 70% or more, less than 90%) | F (barnyard grass) weedkilling efficacy grade (barnyard grass [23]): 5 (weed kill ratio 90% or more, (practically complete withering)) | B (bulrush) weedkilling efficacy grade (bulrush [24]): 5 (weed kill ratio 90% or more, (practically complete withering)) | a (transplanted rice) effect on crop grade (transplanted rice): 5 (weed kill ratio 90% or more, (practically complete withering)) | A (barnyard grass) weedkilling efficacy grade (barnyard grass [25]): 5 (weed kill ratio 90% or more, (practically complete withering)) | H (black-grass) weedkilling efficacy grade (black-grass [26]): 5 (weed kill ratio 90% or more, (practically complete withering)) | b (directly sown rice) effect on crop grade (directly sown rice [27]): 3 (weed kill ratio 40% or more, less than 70%) | G (wild oat) weedkilling efficacy grade (wild oat [28]): 4 (weed kill ratio 70% or more, less than 90%) | K (Indian mallow) weedkilling efficacy grade (Indian mallow [29]): 0 (weed kill ratio 5% or less (practically no effect)) | P (birds-eye speedwell) weedkilling efficacy grade (birds-eye speedwell): 4 (weed kill ratio 70% or more, less than 90%) | G (wild oat) weedkilling efficacy grade (wild oat [30]): 1 (weed kill ratio 5% or more, less than 20%) | C (oval-leafed pondweed) weedkilling efficacy grade (oval-leafed pondweed [31]): 5 (weed kill ratio 90% or more, (practically complete withering)) | g (rapeseed) effect on crop grade (rapeseed [32]): 4 (weed kill ratio 70% or more, less than 90%) | f (beet) effect on crop grade (beet [33]): 0 (weed kill ratio 5% or less (practically no effect)) | L (redroot pigweed) weedkilling efficacy grade (redroot pigweed [34]): 0 (weed kill ratio 5% or less (practically no effect)) | d (soybean) effect on crop grade (soybean [35]): 0 (weed kill ratio 5% or less (practically no effect)) | g (rapeseed) effect on crop grade (rapeseed [36]): 0 (weed kill ratio 5% or less (practically no effect)) | B (bulrush) weedkilling efficacy grade (bulrush [37]): 5 (weed kill ratio 90% or more, (practically complete withering)) | C (oval-leafed pondweed) weedkilling efficacy grade (oval-leafed pondweed [38]): 5 (weed kill ratio 90% or more, (practically complete withering)) | N (chickweed) weedkilling efficacy grade (chickweed [39]): 4 (weed kill ratio 70% or more, less than 90%) | K (Indian mallow) weedkilling efficacy grade (Indian mallow [40]): 5 (weed kill ratio 90% or more, (practically complete withering)) | d (soybean) effect on crop grade (soybean [41]): 4 (weed kill ratio 70% or more, less than 90%) | M (fig-leafed goosefoot) weedkilling efficacy grade (fig-leafed goosefoot [42]): 4 (weed kill ratio 70% or more, less than 90%)
